This note sets out measurements from patent publication US20160297830A1, “NOVEL COMPOUNDS USEFUL FOR THE TREATMENT OF BACTERIAL INFECTIOUS DISEASES” (GALAPAGOS NV, priority 2013, published 2016).

For one experiment, the system named is E. coli Ec1 ATCC 25922. As to the kind of experiment: Antibacterial activity assay (MIC), E. coli Ec1. The conditions noted are these: Escherichia coli. It is filed as cell-based.
Experiment [1] has as its system S. aureus Sa26 ATCC 25923. As to the kind of experiment: Antibacterial activity assay (MIC), S. aureus Sa26. It is filed as cell-based. The conditions noted are these: Staphylococcus aureus.
Experiment [2] has as its system S. aureus Sa2 clinical strain NCIMB 41953, MRSA. As to the kind of experiment: microbe, parasite or virus in culture. Type of experiment: cell-based. The conditions noted are these: Staphylococcus aureus, read-out: MIC Sa2.
The subject of experiment [3] is H. influenza Hi10 clinical strain. Nature of the experiment: organism not typed. Type of experiment: cell-based. Conditions: read-out: MIC Hi10.
For a further experiment, the system named is S. aureus Sa4 NCTC 6571. Nature of the experiment: Antibacterial activity assay (MIC), S. aureus Sa4. Conditions: Staphylococcus aureus. It is filed as cell-based.
For a further experiment, the target named is DNA III Polymerase E (Escherichia coli, UniProt P10443). As to the kind of experiment: In vitro activity against DNA III Polymerase E, E. coli. Type of experiment: biochemical. The protocol:
A radioactive filterplate assay was used to assess inhibitory activity of compounds on DNA Polymerase IIIα. Five μL of a dilution series of compound, starting from 100 μM highest concentration, 1/5 dilution, was added to the wells of a 96 well plate. Recombinant enzyme was diluted to 0.47 μg/mL in a buffer containing 20 mM Tris pH7.5, 8 mM DTT, 10 mM MgOAc, 0.05% CHAPS and 10 μL thereof was added to the compound dilutions. The reaction was started with the addition of 10 μL substrate in the same buffer, containing activated calf thymus DNA (Sigma, D4522), dATP, dGTP, dCTP, dTTP (Invitrogen) and [α-33P]-dTTP (Perkin Elmer, NEG605H001) at a concentration of 62.5 μg/mL, 50 nM and 7.5 μCi/mL respectively. The mixture was incubated at 30° C. for 120 minutes and terminated by addition of phosphoric acid. Samples were transferred to filter plates and incorporated radioactivity was measured by the Topcount. Data were converted to percent inhibition with respect to positive and negative controls. IC50 values were calculated using Graph Prism™ software.

Experiment [4] concerns H. influenza Hi47 clinical strain, Ampicillin Resistant. Nature of the experiment: organism not typed. Type of experiment: cell-based. The conditions noted are these: read-out: MIC Hi47.
Experiment [5] deals with E. coli Ec113 efflux pump KO. Nature of the experiment: microbe, parasite or virus in culture. Type of experiment: cell-based. The conditions noted are these: Escherichia coli, read-out: MIC Ec113 efflux pump KO.
Experiment [6] concerns the target DNA Polymerase IIIα (DnaE) from Staphylococcus aureus (Staphylococcus aureus, UniProt Q6GG04). Nature of the experiment: biochemical.
Experiment [7] concerns H. influenza Hi3 ATCC 31517. As to the kind of experiment: organism not typed. It is filed as cell-based. The conditions noted are these: read-out: MIC Hi3.
In experiment [8] the test system is H. influenza Hi106 ATCC 51907. As to the kind of experiment: organism not typed. It is filed as cell-based. The conditions noted are these: read-out: MIC Hi106.
Another experiment deals with S. aureus Sa1 ATCC 13709. As to the kind of experiment: microbe, parasite or virus in culture. Type of experiment: cell-based. Conditions: Staphylococcus aureus.
For experiment [9], the system named is E. coli Ec50 efflux pump KO. As to the kind of experiment: microbe, parasite or virus in culture. It is filed as cell-based. The conditions noted are these: Escherichia coli, read-out: MIC Ec50 efflux pump KO.
Where [10] appears, read: ATCC25923, read-out: MIC Sa26 + 10% SH.
Where [11] appears, read: ATCC25923, read-out: MIC Sa26 + 50% SH.
Where [12] appears, read: DNA polymerase III, E. coli, read-out: IC50 semiquantitative scoring, E. coli.
Setting [13] is: DNA polymerase III, S. aureus, read-out: IC50 semiquantitative scoring, S. aureus.

In brackets after ≈: the same amount, converted by molar mass. Read-outs that look alike come from different tables or passages of the source.

Broadly, the IC50 is the concentration at which inhibition is half-maximal.

Sequence of DNA III Polymerase E (P10443 whole entry): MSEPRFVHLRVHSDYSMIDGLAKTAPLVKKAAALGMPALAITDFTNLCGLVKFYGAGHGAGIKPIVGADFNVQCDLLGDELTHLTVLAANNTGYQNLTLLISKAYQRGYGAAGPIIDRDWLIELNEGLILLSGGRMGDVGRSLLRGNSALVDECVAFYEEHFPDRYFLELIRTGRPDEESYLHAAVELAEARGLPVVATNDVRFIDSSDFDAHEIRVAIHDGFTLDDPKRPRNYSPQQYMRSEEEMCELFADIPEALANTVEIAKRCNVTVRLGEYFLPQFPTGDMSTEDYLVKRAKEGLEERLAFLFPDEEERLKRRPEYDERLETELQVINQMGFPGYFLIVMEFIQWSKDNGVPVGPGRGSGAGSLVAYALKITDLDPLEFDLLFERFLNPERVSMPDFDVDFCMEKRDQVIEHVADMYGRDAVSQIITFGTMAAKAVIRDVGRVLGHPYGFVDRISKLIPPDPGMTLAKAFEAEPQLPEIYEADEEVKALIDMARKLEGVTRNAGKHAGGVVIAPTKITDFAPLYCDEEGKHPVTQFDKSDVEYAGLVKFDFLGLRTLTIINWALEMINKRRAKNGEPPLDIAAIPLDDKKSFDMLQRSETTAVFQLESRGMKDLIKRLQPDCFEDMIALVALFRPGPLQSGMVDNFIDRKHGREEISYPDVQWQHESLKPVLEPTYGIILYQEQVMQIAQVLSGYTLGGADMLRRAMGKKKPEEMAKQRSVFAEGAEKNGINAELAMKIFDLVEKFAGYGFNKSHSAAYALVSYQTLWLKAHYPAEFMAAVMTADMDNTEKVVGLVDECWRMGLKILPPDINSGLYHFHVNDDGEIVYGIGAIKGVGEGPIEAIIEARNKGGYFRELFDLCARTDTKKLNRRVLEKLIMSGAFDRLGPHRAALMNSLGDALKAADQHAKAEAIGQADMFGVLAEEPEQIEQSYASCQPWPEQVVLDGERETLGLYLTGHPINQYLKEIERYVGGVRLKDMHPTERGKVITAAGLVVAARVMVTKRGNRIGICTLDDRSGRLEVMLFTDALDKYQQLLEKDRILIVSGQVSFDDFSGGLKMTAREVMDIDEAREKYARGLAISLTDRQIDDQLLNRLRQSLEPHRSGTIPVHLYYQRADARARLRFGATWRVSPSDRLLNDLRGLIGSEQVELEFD
Sequence of DNA Polymerase IIIα (DnaE) from Staphylococcus aureus (Q6GG04 1-1022): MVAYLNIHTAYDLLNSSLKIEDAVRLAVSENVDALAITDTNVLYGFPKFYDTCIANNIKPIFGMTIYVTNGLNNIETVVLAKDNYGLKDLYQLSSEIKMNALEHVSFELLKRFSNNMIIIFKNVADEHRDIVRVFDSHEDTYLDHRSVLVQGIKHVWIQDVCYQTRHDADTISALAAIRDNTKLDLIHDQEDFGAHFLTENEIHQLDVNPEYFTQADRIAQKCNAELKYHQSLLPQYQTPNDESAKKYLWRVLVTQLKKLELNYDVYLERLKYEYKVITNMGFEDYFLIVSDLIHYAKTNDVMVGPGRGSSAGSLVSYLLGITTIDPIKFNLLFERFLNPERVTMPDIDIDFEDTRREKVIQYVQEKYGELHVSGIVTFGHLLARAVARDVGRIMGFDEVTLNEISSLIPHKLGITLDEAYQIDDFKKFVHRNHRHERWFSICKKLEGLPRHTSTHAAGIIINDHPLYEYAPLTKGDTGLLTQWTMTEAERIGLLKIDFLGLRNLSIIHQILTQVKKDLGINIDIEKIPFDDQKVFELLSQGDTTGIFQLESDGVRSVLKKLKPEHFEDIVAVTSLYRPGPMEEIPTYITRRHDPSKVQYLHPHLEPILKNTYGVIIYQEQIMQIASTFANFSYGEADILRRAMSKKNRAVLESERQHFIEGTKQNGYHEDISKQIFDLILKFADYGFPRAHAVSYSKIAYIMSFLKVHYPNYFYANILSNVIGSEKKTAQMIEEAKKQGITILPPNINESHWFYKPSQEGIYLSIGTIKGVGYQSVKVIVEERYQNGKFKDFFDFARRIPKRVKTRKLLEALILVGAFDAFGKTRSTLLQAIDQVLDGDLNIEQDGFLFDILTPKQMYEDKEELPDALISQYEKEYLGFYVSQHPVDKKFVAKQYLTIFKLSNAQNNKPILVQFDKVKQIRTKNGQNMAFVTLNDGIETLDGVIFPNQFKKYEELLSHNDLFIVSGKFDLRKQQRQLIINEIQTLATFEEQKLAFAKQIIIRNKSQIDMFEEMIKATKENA

Turning to `COC[C@@H]1[C@@H](O)[C@@H]2[C@H]3C=C[C@@H]4[C@@H](COC)C(=O)O[C@H]([C@H](O)COC)[C@H](C)/C=C(\C)[C@@]24O[C@H]3[C@@H]1OC(=O)c1cnco1` [Compound 14, 8-O-Oxazole-5′ carbonylbranimycin], the MIC with E. coli Ec1 ATCC 25922 (ATCC25922, read-out: MIC Ec1) is above 64 µg/mL; in experiment [1] (ATCC25923, read-out: MIC Sa26) it was above 64 µg/mL; in experiment [1] (setting [10]), above 64 µg/mL; in [1] (setting [11]), above 64 µg/mL; in [2] it was above 64 µg/mL; in experiment [3], above 64 µg/mL. Besides, the MIC in the experiment on S. aureus Sa4 NCTC 6571 (NCTC6571, read-out: MIC Sa4) was above 64 µg/mL; in [4], above 64 µg/mL; in experiment [5], 16 µg/mL (≈ 27.7 µM); in experiment [7], above 64 µg/mL; in experiment [8], above 64 µg/mL; in the experiment with S. aureus Sa1 ATCC 13709 (ATCC13709, read-out: MIC Sa1), above 64 µg/mL. The MIC in experiment [9] is above 64 µg/mL. In addition, the half-inhibitory concentration (IC50) on DNA III Polymerase E (setting [12]) was above 17.3 µM; in experiment [6], 1.73 to 17.3 µM.

As to `COC[C@H]1[C@@H](O)[C@@H]2O[C@@]34/C(C)=C/[C@@H](C)[C@@H]([C@H](O)COC)OC(=O)[C@H](COC)[C@H]3CC[C@@H]2[C@H]4[C@@H]1O` [Compound 15, 4,5-Dihydro-branimycin], the MIC with E. coli Ec1 ATCC 25922 (ATCC25922, read-out: MIC Ec1) was above 64 µg/mL; in experiment [1] (ATCC25923, read-out: MIC Sa26), above 64 µg/mL; in [1] (setting [10]) it was above 64 µg/mL; in experiment [1] (setting [11]), above 64 µg/mL; in experiment [2], above 64 µg/mL; in [3], above 64 µg/mL. Besides, the MIC with S. aureus Sa4 NCTC 6571 (NCTC6571, read-out: MIC Sa4) is above 64 µg/mL; in [4], above 64 µg/mL; in experiment [5] it was 16 µg/mL (≈ 33 µM); in [7], above 64 µg/mL; in [8], above 64 µg/mL; with S. aureus Sa1 ATCC 13709 (ATCC13709, read-out: MIC Sa1), above 64 µg/mL. The MIC in experiment [9] is above 64 µg/mL. Also, the IC50 on DNA III Polymerase E is above 20.6 µM; in [6] (setting [13]) it was 2.06 to 20.6 µM.

On to `COC[C@@H]1[C@@H](O)[C@@H]2[C@H]3CC[C@@H]4[C@@H](COC)C(=O)O[C@H]([C@H](O)COC)[C@H](C)/C=C(\C)[C@@]24O[C@H]3[C@@H]1OC(=O)c1ccc[nH]1` [Compound 16, 4,5-Dihydro-8-O-1H-pyrrole-2′-carbonylbranimycin], for which the MIC with E. coli Ec1 ATCC 25922 (ATCC25922, read-out: MIC Ec1) was above 64 µg/mL; in experiment [1] (ATCC25923, read-out: MIC Sa26) it was 8 µg/mL (≈ 13.8 µM); in experiment [1] (setting [10]) it was 8 µg/mL; in experiment [1] (setting [11]), 8 µg/mL; in experiment [2], 4 µg/mL (≈ 6.92 µM); in experiment [3] it was above 64 µg/mL. Moreover, the MIC in the experiment with S. aureus Sa4 NCTC 6571 (NCTC6571, read-out: MIC Sa4) was 4 µg/mL (≈ 6.92 µM); in experiment [4] it was above 64 µg/mL; in experiment [5], 4 µg/mL (≈ 6.92 µM); in experiment [7], above 64 µg/mL; in [8], above 64 µg/mL; in the experiment with S. aureus Sa1 ATCC 13709 (ATCC13709, read-out: MIC Sa1), 8 µg/mL (≈ 13.8 µM). For the same molecule, the MIC in experiment [9] is above 64 µg/mL. Besides, the half-inhibitory concentration (IC50) at DNA III Polymerase E (setting [12]) was above 17.3 µM; in experiment [6] it was 0.00173 to 1.73 µM.

Take `COCC[C@H]1OC(=O)[C@H](COC)[C@H]2C=C[C@H]3[C@H]4O[C@]2(/C(C)=C/[C@H]1C)[C@@H]3[C@H](O)[C@@H](COC)[C@H]4O` [Compound 17, 17-Deoxybranimycin]: the MIC with E. coli Ec1 ATCC 25922 (ATCC25922, E. coli Ec1 ATCC 25922, sensitive strain, read-out: MIC Ec1) is above 64 µg/mL; in experiment [1] (ATCC25923, read-out: MIC Sa26 + 10% SH, S. aureus Sa26 + 10% SH), above 64 µg/mL; in experiment [1] (ATCC25923, read-out: MIC Sa26 + 50% SH, S. aureus Sa26 + 50% SH) it was above 64 µg/mL; in [1] (ATCC25923, S. aureus Sa26 ATCC 25923, sensitive strain, Mueller-Hinton Broth, 37° C., read-out: MIC Sa26), above 64 µg/mL; in experiment [2] it was above 64 µg/mL; in experiment [3], above 64 µg/mL. For the same molecule, the MIC in the experiment with S. aureus Sa4 NCTC 6571 (NCTC6571, S. aureus Sa4 NCTC 6571, sensitive strain, read-out: MIC Sa4) was above 64 µg/mL; in experiment [4], above 64 µg/mL; in experiment [5] it was 8 µg/mL (≈ 17.1 µM); in [7], above 64 µg/mL; in [8] it was above 64 µg/mL; with S. aureus Sa1 ATCC 13709 (ATCC13709, S. aureus Sa1 ATCC 13709, sensitive strain, Mueller-Hinton Broth, 37° C., read-out: MIC Sa1) it was above 64 µg/mL. Moreover, the MIC in [9] is above 64 µg/mL. Besides, the figures for the half-maximal inhibitory concentration (IC50) (on DNA III Polymerase E (setting [12]); in experiment [6] (setting [13])) were above 21.4 µM and 0.00214 to 2.14 µM, respectively.
